Measurements as given in BindingDB's records for patent US20230391786 (Eli Lilly, 2023).

Target: Cyclic GMP-AMP synthase (Homo sapiens, UniProt Q8N884)
Assay: In Vitro Inhibition Assay
Method: In vitro inhibition assay of cGAS activity: Add a 5 μL mixture containing 10 mM Tris-Cl pH 7.5, 50 mM NaCl, 5 mM MgCl2, 1 mM DTT, 0.01% Triton X-100, 60 nM 75-bp dsDNA, […], 50 μM GTP, 10 nM of recombinant human cGAS, and serial dilutions of a test compound in DMSO to a 384-well plate and incubate at room temperature for 3 hours. Quench the reaction by the addition of 100 μL of stop solution containing 0.1% formic acid and 0.1 μM internal standard (3′3′-difluoro cGAMP). Measure the amount of cGAMP produced by RapidFire 365 mass spectrometry and evaluate inhibitory effect of a compound by plotting percent specific inhibition of cGAMP production against log concentration of the test compound.

Cyclic GMP-AMP synthase, sequence (Q8N884 whole entry): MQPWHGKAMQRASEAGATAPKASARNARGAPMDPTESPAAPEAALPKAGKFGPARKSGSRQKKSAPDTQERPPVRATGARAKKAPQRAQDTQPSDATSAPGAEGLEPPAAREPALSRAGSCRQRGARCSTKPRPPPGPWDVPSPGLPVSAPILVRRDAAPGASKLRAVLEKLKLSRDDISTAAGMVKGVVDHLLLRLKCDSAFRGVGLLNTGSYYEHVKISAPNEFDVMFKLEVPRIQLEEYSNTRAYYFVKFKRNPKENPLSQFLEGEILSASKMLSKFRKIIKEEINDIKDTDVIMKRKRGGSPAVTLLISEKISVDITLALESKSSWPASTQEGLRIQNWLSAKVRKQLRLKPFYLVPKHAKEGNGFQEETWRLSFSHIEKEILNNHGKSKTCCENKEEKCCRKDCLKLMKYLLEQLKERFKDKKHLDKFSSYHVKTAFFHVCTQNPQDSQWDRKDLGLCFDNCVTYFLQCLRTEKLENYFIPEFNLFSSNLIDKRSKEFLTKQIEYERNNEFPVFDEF

Row | IC50 | Structure (SMILES)
1 | 83.9 nM | O=C(CCn1cncn1)N1CCn2c(c(-c3cn[nH]c3)c3ccc(Cl)c(Cl)c32)C1 [US20230391786, Example 49]
2 | 16.5 nM | Cn1ncnc1COCC(=O)N1CCn2c(c(-c3cn[nH]c3)c3c(OCC#N)cc(Cl)c(Cl)c32)C1 [US20230391786, Example 181]
3 | 96.5 nM | OCCn1cc(-n2cc(-c3cn[nH]c3)c3ccc(Cl)cc32)nn1 [US20230391786, Example 229]
4 | 62.5 nM | NC1CCn2c1c(-c1cn[nH]c1)c1ccc(Cl)c(Cl)c12 (centres undefined) [US20230391786, Example 241]
